The text below walks through data of US8129427B2, “2-phenylethylamino derivatives as calcium and/or sodium channel modulators” (Newron Pharmaceuticals S.p.A., priority 2005, dated 2012).

The test system of experiment [1] is sodium currents of cortical neurons. The experiment in a line: Inhibition of sodium currents in cortical neurons (whole cell patch clamp). It is filed as cell-based. Conditions: embryonic Wistar rat cortical neurons, preconditioning −50 mV (half maximal steady-state condition); read-out: IC50 (Vhalf). How it is done:
Cell Preparation and culturing: cortical neurons were prepared from embryonic Wistar rats (E17-E19). Brains of E17/E19 rats were removed and placed in ice-cold Hank's solution (Hank's solution (Life tech.14170-088)+glucose 30%+Pen-Strep 100× (Life Tech. 15140-122) 100 U-100 μg/ml and Hepes-NaOH 5 mM).
Cortex were isolated, cut in small parts and washed twice with Hank's solution. The solution was removed except 1-2 ml and the tissue was mechanically dissociated. After the mechanical dissociation, 5 ml of complete DMEM (Dulbecco's modified Eagle medium) (Gibco 41966-029)+FBS (Hyclone) 10%+Glutamine (Life Tech. 25030-024) 2 mM+Pen-Strep 100 U-100 μg/ml were added, and cell suspension was centrifuged for 5 min at 1000 rpm. Supernatant was removed and 5 ml of complete Neurobasal medium was added (Neurobasal medium (Life tech. 21103-049)+B27 (Life tech. 17504-044) 2%+Glutamine 2 mM+Pen-Strep 100 U-100 μg/ml)
Cells were counted and diluted in Neurobasal medium to a concentration of 400000 cells per poly-D-lysine 5 μg/ml treated Petri dish. […]
Whole Cell Patch Clamp Recordings: Experiments on cortical neurons were carried out using standard whole cell patch clamp methods (Hamill et al., 1981). Membrane currents were recorded and filtered at 5 kHz with an Axon Axopatch 200B amplifier and data digitized with an Axon Digidata 1322A (Axon Instruments, CA, USA). […]

In experiment [2] the test system is chronic constriction injury model in the rat. In words: Bennett model of neuropathic pain in rats (cold allodynia). The format is in vivo. Conditions: AUD of cold allodynia as percent inhibition of vehicle control. How it is done:
Effects on neuropathic pain are tested in the chronic constriction injury model in the rat (Bennett, G. J. and Xie, Y. K., A peripheral mononeuropathy in rat that produces disorders of pain sensation like those seen in man, Pain, 33 (1988) 87-107). Under pentobarbital anesthesia (Nembutal, 50 mg/kg, i.p.), unilateral multiple ligations are performed on male Sprague-Dawley rats (140-160 g) at the right common sciatic nerve. The sciatic nerve is exposed by blunt dissection at the level of mid-thigh and four loose ligatures (5-0 chromic catgut) are placed around the nerve taking care not to interrupt the epineural circulation. After operation, animals are allowed to recover for one week. Animals develop a cold allodynia which is stable for at least five weeks. […] The animals, randomly assigned to groups of 10 for each test dose and vehicle, are observed for periods of 2 minutes before and after application of test compound and the number of brisk withdrawal reactions is counted. […] Percent maximal possible effect (% MPE) and standard error of the mean (SEM) of each time point is determined with the pre-test value used as […]. The area under the data (AUD) is calculated for the observation period and expressed as percent inhibition of vehicle control as shown in Table 8. Significance is calculated by paired t-test on the percent AUD values.

The next experiment concerns TTXs sodium channels. In words: TTXs-sodium channel influx assay (membrane potential fluorescence). The conditions noted are these: ND7/23 cells, veratridine 100 μM. The format is cell-based, rat. How it is done:
ND7/23 rat dorsal root ganglion-derived cell line endogenously expresses a mixed population of TTXs sodium channels (such as Nav1.3, Nav1.2, Nav1.1, Nav1.6). These cells lack of TTXr sodium channels as shown by the absence of their respective transcripts. ND7/23 cells were grown in DMEM supplemented with 10% FBS and 1 mM sodium piruvate.
The cells were seeded at 50,000 cells/well on 96 poly-L-lysine-coated plates and further incubated for 18-24 h before use.
The Membrane Potential Kit Assay (Molecular Devices), based on a negatively charged fluorescent dye able to monitor changes in membrane potential caused by the sodium influx due to the channel opening, was used for the assay.
Cells were incubated with the dye loading for 30 minutes at 25° C. Then, 100 nM of the toxin Anemonia sulcata (used as enhancer of the channel opener response) alone or in the presence of TTX (as reference standard) or test compound were added for further 15 minutes.
The fluorescence (excitation: 530 nm, emission: 565 nm wavelength) was measured before and after (40-45 s) the automated injection of the sodium channel opener veratridine (100 μM) using a Victor plate reader (Perkin Elmer).
The inhibition curves were calculated from 5 concentrations, each in triplicate, and the IC50 determined using a linear regression analysis.

`CCCCOc1cccc(CCN(CC(=O)N(C)C)CC2CCOC2)c1.Cl` (racemic) [Example 96, 2-[[2-(3-Butoxy-phenyl)-ethyl]-(tetrahydrofuran-3-ylmethyl)amino]-N,N-dimethyl-acetamide hydrochloride]: the IC50 in experiment [1] was determined as 0.5 µM; with TTXs sodium channels it was 2 µM. The “Change vs. Control” value in experiment [2] (0.1 mg/kg p.o.) is listed as 35.7%.

On to `C[C@H](NCc1ccc(OCc2ccccc2F)cc1)C(N)=O` [ralfinamide, (S)-(+)-2-[4-(2-fluoro-benzyloxy)-benzylamino]-propanamide, reference compound], for which the values for the half-inhibitory concentration (IC50) (in experiment [1]; in the experiment with TTXs sodium channels) were 9 µM and 9.5 µM, respectively. For the same compound, in experiment [2] (1.0 mg/kg p.o.), the “Change vs. Control” value was 23.7%.
